Measurements: PMC7304070 (Journal of the American Chemical Society, 2020)

Experiments:
[1] = Circular dichroism helicity; format: physicochemical; details: for Helicity, Stabilized (S): CD, 10 μM in 1:1 water:acetonitrile, molar ellipticity at 222 nm, stabilized peptide
MDM2-GST = MDM2-GST (Homo sapiens, UniProt Q00987); experiment: Bacterial surface display; format: binding; details: for BSD Kd Ratio (NS/S): non-stabilized / stabilized Kd on bacterial surface
[2] = target: MDM2 truncate (residues 10–118) (Homo sapiens, UniProt Q00987); experiment: Bio-layer interferometry; format: binding; details: non-stabilized / stabilized Kd in solution (fold improvement upon stabilization)
Sequence of MDM2 truncate (residues 10–118) (Q00987 10-118): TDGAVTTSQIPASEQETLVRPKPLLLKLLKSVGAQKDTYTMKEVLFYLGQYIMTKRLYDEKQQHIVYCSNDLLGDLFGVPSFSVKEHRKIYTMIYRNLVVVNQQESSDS

Sequence of MDM2-GST (Q00987 whole entry, the tested form may be a part): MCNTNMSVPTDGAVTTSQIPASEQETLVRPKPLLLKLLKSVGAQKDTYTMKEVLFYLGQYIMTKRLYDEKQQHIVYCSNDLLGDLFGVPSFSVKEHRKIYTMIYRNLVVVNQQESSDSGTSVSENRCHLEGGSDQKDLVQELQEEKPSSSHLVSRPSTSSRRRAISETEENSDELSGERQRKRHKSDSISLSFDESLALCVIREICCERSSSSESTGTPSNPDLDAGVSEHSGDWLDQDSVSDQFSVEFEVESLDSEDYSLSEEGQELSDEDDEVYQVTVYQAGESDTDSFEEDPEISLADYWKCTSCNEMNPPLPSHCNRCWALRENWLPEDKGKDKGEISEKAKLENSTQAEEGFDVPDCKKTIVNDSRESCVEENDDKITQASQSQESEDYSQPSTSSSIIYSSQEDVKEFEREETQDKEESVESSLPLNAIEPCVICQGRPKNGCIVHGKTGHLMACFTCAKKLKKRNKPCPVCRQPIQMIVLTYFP

Sequence	Helicity, Stabilized (S) [1]	BLI Kd Ratio (NS/S) [2]	BSD Kd Ratio (NS/S) (MDM2-GST)	also measured
ETAXDLWRLLXEN (sidechain bridge or staple) [SPD-M0-E(−2)-F19A]	50%			binding as displayed on the bacterial cell surface (MDM2-GST; negative controls, Figure S1): did not exhibit measurable binding
ETFXDLWRLLXEN (sidechain bridge or staple) [SPD-M0-E(−2)]	53%			
GGTFXGYWADLXAF (sidechain bridge or staple) [SPD-M3-G1]	18%	4.1	1.4	Helicity Ratio (S/NS) ([1]; stabilized / non-stabilized helicity): 1.1; improvement in affinity over the starting sequence SPD-M0-E(−2) (MDM2-GST; bacterial surface, stabilized, after 3 rounds of sorting, n = 3 independent trials of duplicates): ~5 fold

Second part, led by results:

Helicity, Stabilized (S) [1]	BLI Kd Ratio (NS/S) [2]	BSD Kd Ratio (NS/S) (MDM2-GST)	Sequence	also measured
40%			QTFXDLWRLLXEN (sidechain bridge or staple) [SPD-M0-E(−1)]	
41%			QTFXDLWRLLXQN (sidechain bridge or staple) [SPD-M0-E(0)]	
	9.4	6.6	VLSFXDYWNLLXGS (sidechain bridge or staple) [SPD-M3-V1]	
